# Values quoted from earlier work in US20190015503A1, “METHODS FOR THE PROGNOSIS AND TREATMENT OF ENDOMETRIAL CARCINOMA” (INSERM (INSTITUT NATIONAL DE LA SANTÉ DE LA RECHERCHE …, priority 2015, published 2019).
# Test system: prostate cancer cells
# Settings: dose- and time-dependent
structure (smiles),measurement,value
COc1cccc(OC)c1-c1cc(C(=O)NC2(C(=O)O)C3CC4CC(C3)CC2C4)nn1-c1ccnc2cc(Cl)ccc12 (stereo not shown) [SR48692],radio-sensitization (increasing apoptotic cell death and decreasing clonogenic survival),radio-sensitized prostate cancer cells in a dose- and time-dependent manner
